Experimental data: PubChem BioAssay (NCI)
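Protocol summary: plate cells (96-well), add compound at 5 concentrations, incubate 48 h, interpolate endpoints linearly. TGI is the concentration that stops growth completely.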

Assays:
Test in all cases: NCI tumour cell line growth inhibition, 48 h
786-0 renal = tested on: 786-0 renal
A498 renal = tested on: A498 renal
A549 NSCLC = tested on: A549 NSCLC
ACHN renal = tested on: ACHN renal
CAKI-1 renal = tested on: CAKI-1 renal
CCRF-CEM leukemia = tested on: CCRF-CEM leukemia
COLO 205 colon = tested on: COLO 205 colon
DLD-1 colon = tested on: DLD-1 colon
DMS 114 small cell lung = tested on: DMS 114 small cell lung
DMS 273 small cell lung = tested on: DMS 273 small cell lung
HCC-2998 colon = tested on: HCC-2998 colon
HCT-116 colon = tested on: HCT-116 colon
HCT-15 colon = tested on: HCT-15 colon
HL-60(TB) leukemia = tested on: HL-60(TB) leukemia
HOP-18 NSCLC = tested on: HOP-18 NSCLC
HOP-62 NSCLC = tested on: HOP-62 NSCLC
HT29 colon = tested on: HT29 colon
IGROV1 ovarian = tested on: IGROV1 ovarian
K-562 leukemia = tested on: K-562 leukemia
KM12 colon = tested on: KM12 colon
LOX IMVI melanoma = tested on: LOX IMVI melanoma
LXFL 529 NSCLC = tested on: LXFL 529 NSCLC
M14 melanoma = tested on: M14 melanoma
M19-MEL melanoma = tested on: M19-MEL melanoma
MALME-3M melanoma = tested on: MALME-3M melanoma
MOLT-4 leukemia = tested on: MOLT-4 leukemia
NCI-H226 lung = tested on: NCI-H226 lung
NCI-H23 lung = tested on: NCI-H23 lung
NCI-H460 lung = tested on: NCI-H460 lung
NCI-H522 lung = tested on: NCI-H522 lung
OVCAR-3 ovarian = tested on: OVCAR-3 ovarian
OVCAR-4 ovarian = tested on: OVCAR-4 ovarian
OVCAR-5 ovarian = tested on: OVCAR-5 ovarian
OVCAR-8 ovarian = tested on: OVCAR-8 ovarian
RPMI-8226 leukemia = tested on: RPMI-8226 leukemia
RXF 393 renal = tested on: RXF 393 renal
RXF-631 renal = tested on: RXF-631 renal
SF-268 CNS = tested on: SF-268 CNS
SF-295 CNS = tested on: SF-295 CNS
SF-539 CNS = tested on: SF-539 CNS
SK-MEL-2 melanoma = tested on: SK-MEL-2 melanoma
SK-MEL-28 melanoma = tested on: SK-MEL-28 melanoma
SK-MEL-5 melanoma = tested on: SK-MEL-5 melanoma
SK-OV-3 ovarian = tested on: SK-OV-3 ovarian
SN12C renal = tested on: SN12C renal
SNB-19 CNS = tested on: SNB-19 CNS
SNB-75 CNS = tested on: SNB-75 CNS
SNB-78 CNS = tested on: SNB-78 CNS
SR leukemia = tested on: SR leukemia
SW-620 colon = tested on: SW-620 colon
TK-10 renal = tested on: TK-10 renal
U251 CNS = tested on: U251 CNS
UACC-257 melanoma = tested on: UACC-257 melanoma
UO-31 renal = tested on: UO-31 renal
XF 498 CNS = tested on: XF 498 CNS

Question: What does the source list for `Cc1[nH]c2ccccc2c1C(=O)CC1(O)C(=O)Nc2c(Cl)cc(Cl)cc21` (stereo not given)?
Answer: TGI (786-0 renal): > 100 µM; TGI (A498 renal): 67.4 µM; TGI (A549 NSCLC): 96.3 µM; TGI (ACHN renal): 53.5 µM; TGI (CAKI-1 renal): 98.3 µM; TGI (CCRF-CEM leukemia): 47.9 µM; TGI (COLO 205 colon): 61.7 µM; TGI (DLD-1 colon): > 100 µM; TGI (DMS 114 small cell lung): 44.9 µM; TGI (DMS 273 small cell lung): > 100 µM; TGI (HCC-2998 colon): > 100 µM; TGI (HCT-116 colon): > 100 µM; TGI (HCT-15 colon): > 100 µM; TGI (HL-60(TB) leukemia): 37.6 µM; TGI (HOP-18 NSCLC): 85.6 µM; TGI (HOP-62 NSCLC): > 100 µM; TGI (HT29 colon): > 100 µM; TGI (IGROV1 ovarian): > 100 µM; TGI (K-562 leukemia): 58 µM; TGI (KM12 colon): > 100 µM; TGI (LOX IMVI melanoma): 72.5 µM; TGI (LXFL 529 NSCLC): 30.8 µM; TGI (M14 melanoma): 53.9 µM; TGI (M19-MEL melanoma): 24.6 µM; TGI (MALME-3M melanoma): 36.1 µM; TGI (MOLT-4 leukemia): 55.1 µM; TGI (NCI-H226 lung): 42.7 µM; TGI (NCI-H23 lung): 44.5 µM; TGI (NCI-H460 lung): > 100 µM; TGI (NCI-H522 lung): 32.9 µM; TGI (OVCAR-3 ovarian): 44 µM; TGI (OVCAR-4 ovarian): 21.8 µM; TGI (OVCAR-5 ovarian): 52.1 µM; TGI (OVCAR-8 ovarian): 70.4 µM; TGI (RPMI-8226 leukemia): 53.8 µM; TGI (RXF 393 renal): 39.2 µM; TGI (RXF-631 renal): > 100 µM; TGI (SF-268 CNS): 57.3 µM; TGI (SF-295 CNS): 56.2 µM; TGI (SF-539 CNS): 61.7 µM; TGI (SK-MEL-2 melanoma): 81 µM; TGI (SK-MEL-28 melanoma): 62 µM; TGI (SK-MEL-5 melanoma): 31.5 µM; TGI (SK-OV-3 ovarian): > 100 µM; TGI (SN12C renal): 55.6 µM; TGI (SNB-19 CNS): > 100 µM; TGI (SNB-75 CNS): > 100 µM; TGI (SNB-78 CNS): > 100 µM; TGI (SR leukemia): 54.8 µM; TGI (SW-620 colon): 52 µM; TGI (TK-10 renal): > 100 µM; TGI (U251 CNS): > 100 µM; TGI (UACC-257 melanoma): 31.5 µM; TGI (UO-31 renal): 60.9 µM; TGI (XF 498 CNS): 32.8 µM
